Ki data for four compounds are collected here from patent US8592457B2, “Isonicotinamide orexin receptor antagonists” (Merck Sharp & Dohme Corp., priority 2008, dated 2013).

SMILES strings stand for the structures.

The Ki is the equilibrium dissociation constant of an inhibitor or competing ligand from its target.

OX2R, sequence (O43614 whole entry): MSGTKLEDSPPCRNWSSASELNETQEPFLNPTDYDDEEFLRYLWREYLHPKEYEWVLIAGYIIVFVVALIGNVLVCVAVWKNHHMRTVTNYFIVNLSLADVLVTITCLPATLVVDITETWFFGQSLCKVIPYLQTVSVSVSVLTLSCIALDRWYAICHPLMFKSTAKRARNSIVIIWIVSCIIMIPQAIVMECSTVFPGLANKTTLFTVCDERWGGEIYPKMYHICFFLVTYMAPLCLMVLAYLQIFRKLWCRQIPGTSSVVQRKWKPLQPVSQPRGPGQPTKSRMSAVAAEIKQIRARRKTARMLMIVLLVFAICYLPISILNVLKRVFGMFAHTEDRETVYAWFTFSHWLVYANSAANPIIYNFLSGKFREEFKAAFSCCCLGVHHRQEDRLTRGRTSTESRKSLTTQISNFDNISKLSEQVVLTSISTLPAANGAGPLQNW

This experiment deals with OX2R (Homo sapiens (Human), UniProt O43614). The experiment can be described thus: radioligand binding assay, OX2 receptor. The following applies: membranes prepared from CHO cells expressing the OX2 receptor. Here is the method:
The utility of the compounds in accordance with the present invention as orexin receptor OX1R and/or OX2R antagonists may be readily determined without undue experimentation by methodology well known in the art, including the “FLIPR Ca^2+ Flux Assay” (Okumura et al., Biochem. Biophys. Res. Comm. 280:976-981, 2001). In a typical experiment the OX1 and OX2 receptor antagonistic activity of the compounds of the present invention was determined in accordance with the following experimental method. For intracellular calcium measurements, Chinese hamster ovary (CHO) cells expressing the rat orexin-1 receptor or the human orexin-2 receptor, are grown in Iscove's modified DMEM containing 2 mM L-glutamine, […], 1% hypoxanthine-thymidine supplement, 100 U/ml penicillin, 100 ug/ml streptomycin and 10% heat-inactivated fetal calf serum (FCS). The cells are seeded at 20,000 cells/well into Becton-Dickinson black 384-well clear bottom sterile plates coated with poly-D-lysine. All reagents were from GIBCO-Invitrogen Corp. The seeded plates are incubated overnight at 37° C. and 5% CO2. Ala-6,12 human orexin-A as the agonist is prepared as a 1 mM stock solution in 1% bovine serum albumin (BSA) and diluted in assay buffer (HBSS containing 20 mM HEPES, 0.1% BSA and 2.5 mM probenecid, pH7.4) for use in the assay at a final concentration of […]. Test compounds are prepared as 10 mM stock solution in DMSO, then diluted in 384-well plates, first in DMSO, then assay buffer. On the day of the assay, cells are washed 3 times with 100 ul assay buffer and then incubated for 60 min (37° C., 5% CO2) in 60 ul assay buffer containing 1 uM Fluo-4AM ester, 0.02% pluronic acid, and 1% BSA. The dye loading solution is then aspirated and cells are washed 3 times with 100 ul assay buffer. 30 ul of that same buffer is left in each well. Within the Fluorescent Imaging Plate Reader (FLIPR, Molecular Devices), test compounds are added to the plate in a volume of 25 ul, incubated for 5 min and finally 25 ul of agonist is added. Fluorescence is measured for each well at 1 second intervals for 5 minutes and the height of each fluorescence peak is compared to the height of the fluorescence peak induced by 70 pM Ala-6,12 orexin-A with buffer in place of antagonist. […] Alternatively, compound potency can be assessed by a radioligand binding assay (described in Bergman et. al. Bioorg. Med. Chem. Lett. 2008, 18, 1425-1430) in which the inhibition constant (Ki) is determined in membranes prepared from CHO cells expressing either the OX1 or OX2 receptor. The intrinsic orexin receptor antagonist activity of a compound which may be used in the present invention may be determined by these assays.
Compound `COc1ncc(CNC(=O)c2cc(-c3cncc(C)c3)ncc2-c2cccc(F)c2)nc1OC` [1-13] had an inhibitory constant (Ki) of 4.5 nM.

Compound `COc1nc(CNC(=O)c2cc(-c3cncc(C)c3)ncc2-c2nccs2)ccc1C1CC1` [7-7, N-[(5-cyclopropyl-6-methoxypyridin-2-yl)methyl]-5′-methyl-5-(1,3-thiazol-2-yl)-2,3′-bipyridine-4-carboxamide] came in with a Ki of 0.97 nM.

Turning to `COc1ccc(CNC(=O)c2cc(-c3cncc(C)c3)ncc2-c2cccc(F)c2)nc1OC` [1-16], affinity was put at a Ki of 0.91 nM.

With `COc1ccc(CNC(=O)c2cc(-c3cncc(C)c3)ncc2-c2nccs2)nc1OC` [7-5, N-[(5,6-Dimethoxypyridin-2-yl)methyl]-5′-methyl-5-(1,3-thiazol-2-yl)-2,3′-bipyridine-4-carboxamide], the affinity corresponds to a Ki of 0.95 nM.
